Results on five molecules are retold here after patent US9295627B2 (priority 2011, dated 2016).

Molecules are shown by their SMILES. Where two headings read alike, the source gives them in different places. Some results are limits rather than exact numbers.

The nature of data set [1]: Solubility in solvents such as water. The data set is classed as physicochemical.
In data set [2] the test system is medium periodontal diseases. The data set is described as follows: Volunteer test 2: tooth mobility after mouthwash use, concentration series. Conditions: aqueous mouthwash, % by mass, Experiment 6. The data set is classed as in vivo, human. The source says:
• A: A distinct improvement in tooth mobility is observed on a tooth mobility test (or periodontometry) with a pincette compared with that before initiating the test; • B: Somewhat improvement in tooth mobility is observed on a tooth mobility test with a pincette compared with that before initiating the test; and • C: No improvement or rather aggravation is observed on a tooth mobility test with a pincette compared with that before initiating the test.
For adenosine N1-oxide, which had marked the highest improvement effect on periodontal diseases in Experiment 5, it was examined in more detail for its improvement action on periodontal diseases: Eight females, 20- to 30-year-old, as subjects, who were healthy except for suffering from medium periodontal diseases (with a periodontal pocket depth of 3 mm or deeper but less than 6 mm), were subjected to a volunteer test similarly as in Experiment 5 except for using six types of aqueous solutions containing 0.001 to 7.5% adenosine N1-oxide and setting a test period of seven months. […]
The subjects were allowed to brush their teeth with the same toothpaste as used in Experiment 5. […] Before initiating the test, a dental hygienist under a doctor's guidance evaluated the conditions of gingivitis for each subject […] based on the same criteria as shown in Experiment 5.

A further data set can be described thus: Acute toxicity test. Conditions: female, BALB/c, mouse, in vivo, ip. On the procedure: Two grams of any one of the adenosine N1-oxide obtained in Experiment 1, the 3′-glucosyladesonine N1-oxide and 5′-glucosyladenosine N1-oxide obtained in Experiment 2, and the 5′-adenosine diphosphate N1-oxide and 5′-adenosine triphosphate N1-oxide obtained in Experiment 3 was dissolved in 100 mL of D-PBS (Dulbecco's Phosphate-Buffered Salines). The resulting solution was intraperitoneally administered to 10 BALB/c female mice, six-week-old, with an average body mass of 20 g each, commercialized by Charles River Laboratories Japan, Inc., Kanagawa, Japan, at a dose of one milliliter/head, followed by observation for 24 hours. As a control, only D-PBS was intraperitoneally administered to 10 BALB/c female mice, six-week-old, with an average body mass of 20 g each, commercialized by Charles River Laboratories Japan, Inc., Kanagawa, Japan, at a dose of one milliliter/head, followed by observation for 24 hours. Thereafter, each mouse was collected her blood and urine for measuring clinical test items as indexes for renal and liver functions. […] As a result, adenosine N1-oxide, 3′-glucosyladenosine N1-oxide, 5‘-glucosyladenosine N1-oxide, 5’-adenosinme diphosphate N1-oxide, and 5′-adenosine triphosphate N1-oxide have an LD50 of at least 1,000 mg/kg, respectively. Thus, these compounds are judged as substances safely administrable to humans.

[3] abbreviates: 1000 mg/kg, intraperitoneal, 2 g in 100 mL D-PBS, one milliliter/head, mice of 20 g, observation for 24 hours, read-out: LD50.

For the molecule `Nc1c2ncn(C3OC(COP(=O)(O)OP(=O)(O)O)C(O)C3O)c2nc[n+]1[O-]` (centres unmarked) [5′-adenosine diphosphate N1-oxide], in data set [1], the “solubility in solvents such as water compared to adenosine N1-oxide” value (shortened to “solubility … compared to adenosine N1-oxide”) was “higher solubility”.

Take `Nc1c2ncn([C@@H]3O[C@H](CO)[C@@H](O)[C@H]3O)c2nc[n+]1[O-]` [adenosine N1-oxide]: in data set [2], the “concentrations at which periodontal diseases are distinctly, effectively prevented and/or treated” value was ≥ 0.5%. The LD50 (as a rule, the dose at which mortality reaches 50%) at 24 h in the data set “Acute toxicity test” is ≥ 1000 mg/kg.

`Nc1c2ncn([C@@H]3O[C@H](CO[C@H]4O[C@H](CO)[C@@H](O)[C@H](O)[C@H]4O)[C@@H](O)[C@H]3O)c2nc[n+]1[O-]`: the “solubility … compared to adenosine N1-oxide” value in data set [1] is listed as “higher solubility”. Besides, the LD50 at 24 h in “Acute toxicity test” (setting [3]) was ≥ 1000 mg/kg.

Regarding `Nc1c2ncn([C@@H]3O[C@H](COP(=O)(O)OP(=O)(O)OP(=O)(O)O)[C@@H](O)[C@H]3O)c2nc[n+]1[O-]` [5′-adenosine triphosphate N1-oxide], the “solubility … compared to adenosine N1-oxide” value in data set [1] is “higher solubility”.

For the molecule `Nc1c2ncn([C@@H]3O[C@H](CO)[C@@H](O[C@H]4O[C@H](CO)[C@@H](O)[C@H](O)[C@H]4O)[C@H]3O)c2nc[n+]1[O-]`, in data set [1], the “solubility … compared to adenosine N1-oxide” value was “higher solubility”. In “Acute toxicity test” (setting [3]), the LD50 at 24 h is ≥ 1000 mg/kg.
